“And” between values parts separate entries of the source, which are not always exact repeats. Equal values may be shown once.
Assays:
U2OS [1] = experiment: (§1) Here: values are normalized to the positive (DMSO; basel flux = defined as 100% suppression) and negative (250nM Torin1; mTOR inhibitor; maximal inducer of autophagy defined as 0% suppression) control compounds and represented as % of ER-phagy suppression. […] The impact of autophagy induction on cells is complex and depends on the affected target. […] Of note, treatment concentrations may be sub-optimal for specific compounds, leading to false negative annotations.; format: functional, Homo sapiens; conditions: Compound Concentration 1 uM, Culturing Media DMEM, 1 % Penicillin/Streptomycin, 10% Fetal bovin serum Add-On: blasticidin, Screening Media Control DMEM, 10% Fetal bovin serum Add-On: 1 µg/ml Doxycyclin, Screening Media Samples DMEM
U2OS [2] = experiment: as §1; format: functional, Homo sapiens; conditions: Compound Concentration 1 uM, Culturing Media DMEM, 1 % Penicillin/Streptomycin, 10% Fetal bovin serum Add-On: blasticidin, Screening Media Control DMEM, 10% Fetal bovin serum Add-On: 1 µg/ml Doxycyclin, Screening Media Samples DMEM; remark: listed apart in the source
[3] = Timepoint 12 hours, 10% Fetal bovin serum Add-On: 1 µg/ml Doxycyclin 250nM Torin1
[4] = Timepoint 24 hours, 10% Fetal bovin serum Add-On: 1 µg/ml Doxycyclin 250nM Torin1
[5] = Timepoint 36 hours, 10% Fetal bovin serum Add-On: 1 µg/ml Doxycyclin 250nM Torin1
[6] = Timepoint 54 hours, 10% Fetal bovin serum Add-On: 1 µg/ml Doxycyclin 250nM Torin1
[7] = Timepoint 60 hours, 10% Fetal bovin serum Add-On: 1 µg/ml Doxycyclin 250nM Torin1

SMILES | ER-phagy suppression (U2OS [1]; [3]) | ER-phagy suppression (U2OS [1]; [4]) | ER-phagy suppression (U2OS [1]; [5]) | ER-phagy suppression (U2OS [1]; [6]) | ER-phagy suppression (U2OS [2]; [3]) | ER-phagy suppression (U2OS [2]; [4]) | ER-phagy suppression (U2OS [2]; [5]) | ER-phagy suppression (U2OS [2]; [7]) | ER-phagy suppression (U2OS [1]; Timepoint 12 hours, 10% Fetal bovin serum Add-On: 1 µg/ml Doxycyclin 250nM Torin1, 12 h, 1 µM) | ER-phagy suppression (U2OS [1]; Timepoint 24 hours, 10% Fetal bovin serum Add-On: 1 µg/ml Doxycyclin 250nM Torin1, 24 h, 1 µM) | ER-phagy suppression (U2OS [1]; Timepoint 36 hours, 10% Fetal bovin serum Add-On: 1 µg/ml Doxycyclin 250nM Torin1, 36 h, 1 µM) | ER-phagy suppression (U2OS [1]; Timepoint 54 hours, 10% Fetal bovin serum Add-On: 1 µg/ml Doxycyclin 250nM Torin1, 54 h, 1 µM) | ER-phagy suppression (U2OS [2]; Timepoint 60 hours, 10% Fetal bovin serum Add-On: 1 µg/ml Doxycyclin 250nM Torin1, 60 h, 1 µM)
NC(=O)c1ccc2[nH]c(-c3ccc(Oc4ccc(Cl)cc4)cc3)nc2c1 | -2.841% | -13.7146% | -23.7031% | -21.3336% | -30.239% | -28.4978% | -29.0961% | -19.7873% |  |  |  |  | 
CCN(CCO)CCCOc1ccc2c(Nc3cc(CC(=O)Nc4cccc(F)c4)[nH]n3)ncnc2c1 [DEFOSBARASERTIB] |  |  |  |  |  |  |  |  | -1.417% and 3.579% | -12.3988% and -4.272% | -12.8875% and -11.7769% | -17.4995% and -20.4042% | 14.0476% and -1.761%
O=C(O)c1ccc2c3c1cccc3c(=O)n1c3ccccc3nc21 | -10.0258% | -24.8466% | -33.5835% | -29.9152% | -11.121% | -24.1866% | -20.6591% | -29.8702% |  |  |  |  | 
CN(C)CCCn1cc(C2=C(c3c[nH]c4ccccc34)C(=O)NC2=O)c2ccccc21 [GF-109203] | 134.318% | 101.39% | 90.0252% | 89.0171% | 176.072% | 134.347% | 114.591% | 104.135% |  |  |  |  | 
O=C(NCc1ccccc1)c1ccc(S(=O)(=O)NCc2ccccc2)cc1 | 3.538% | -5.467% | -1.304% | 10.3755% | -6.979% | -12.761% | -1.702% | -8.939% |  |  |  |  | 
Cc1ccc(-c2ccc3c(ccc4sc5c(c43)NC[C@@H](C)NC5=O)n2)cn1 | -17.2516% | -0.875% | 6.096% | 19.149% | 5.336% | 5.52% | 7.693% | 5.525% |  |  |  |  | 
CN(c1ccnc(CNc2nc(Nc3ccc4c(c3)CC(=O)N4)ncc2C(F)(F)F)n1)S(C)(=O)=O [PF-00911705] | 20.0554% | 26.0373% | 39.3297% | 54.466% | 7.113% | 19.7718% | 14.8623% | 9.977% |  |  |  |  | 
CN(C)C(=O)/C(C#N)=C/c1ccc(-c2nc3cnc4[nH]ccc4c3n2C2CCCCC2)o1 | -7.884% | -25.0962% | -37.4199% | -35.162% | -17.3558% | -33.4897% | -33.7439% | -36.9146% |  |  |  |  | 
O=C(O)CSc1ncnc2cc(-c3cc4ccccc4s3)sc12 | 0.5897% | -12.2442% | -19.5389% | -8.371% | -19.6328% | -17.1874% | -14.8161% | -4.092% |  |  |  |  | 

Reference: ChEMBL document CHEMBL5724696, “Autophagy assay results for EUbOPEN Chemogenomics Library” (2024)
